Data on 1 compound can be found in ChEMBL document CHEMBL4340530, “Peptide-based covalent inhibitors of MALT1 paracaspase” (Bioorg Med Chem Lett, 2019).

The source made the active and inactive calls. The calls are words filed in the database; no cut-off is given here.

One data set has as its system OCI-Ly1. Nature of the data set: Antitumor activity against human OCI-LY1 cells xenografted in ip dosed NOD.CB17-Prkdc SCID mouse assessed as effect on tumor growth administered twice daily for 16 to 24 days measured 4 hrs post-last dose. Type of data set: functional, organism-based.
Data set [1] concerns the target T1, Cathepsin K (Homo sapiens) (UniProt P43235).
T1 sequence (whole entry): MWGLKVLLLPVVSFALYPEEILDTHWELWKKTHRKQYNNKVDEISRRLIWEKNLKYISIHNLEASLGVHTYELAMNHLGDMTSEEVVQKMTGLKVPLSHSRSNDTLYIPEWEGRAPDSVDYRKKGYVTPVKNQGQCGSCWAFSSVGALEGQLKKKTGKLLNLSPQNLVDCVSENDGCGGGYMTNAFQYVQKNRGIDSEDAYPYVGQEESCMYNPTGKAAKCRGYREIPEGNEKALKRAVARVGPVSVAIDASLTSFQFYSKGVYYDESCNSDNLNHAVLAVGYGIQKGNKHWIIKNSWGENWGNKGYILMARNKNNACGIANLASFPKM
Put plainly: Inhibition of cathepsin K (unknown origin) at 10 uM relative to control.

A short description of data set [2]: Half life in mouse plasma. Format: ADME, cell-free.
The target of data set [3] is Kallikrein-1 (Homo sapiens) (UniProt P06870). Put plainly: Inhibition of KLK1 (unknown origin) at 10 uM.
For data set [4], the target named is T1, Cathepsin K (Homo sapiens). Put plainly: Inhibition of cathepsin K (unknown origin) at 1 uM relative to control.
The next data set addresses Caspase-7 (Homo sapiens) (UniProt P55210). Nature of the data set: Inhibition of caspase-7 (unknown origin) at 10 uM.
For data set [5], the target named is Tryptase beta-2 (Homo sapiens) (UniProt P20231). Put plainly: Inhibition of tryptase b2 (unknown origin) at 10 uM relative to control.
Data set [6] has as its target T2, Trypsin (Homo sapiens) (UniProt P07477+P07478+P35030). Nature of the data set: Inhibition of trypsin (unknown origin) at 10 uM relative to control. Format: protein assay.
Data set [7] has as its target Calpain1/2 (Homo sapiens) (UniProt P17655+P07384). Nature of the data set: Inhibition of calpain (unknown origin) at 10 uM relative to control. Type of data set: protein assay.
For data set [8], the target named is Urokinase-type plasminogen activator (Homo sapiens) (UniProt P00749). Put plainly: Inhibition of urokinase (unknown origin) at 10 uM.
The target in data set [9] is T1, Cathepsin K (Homo sapiens). Put plainly: Inhibition of cathepsin K (unknown origin) at 100 nM relative to control.
For data set [10], the target named is Cathepsin G (Homo sapiens) (UniProt P08311). Put plainly: Inhibition of cathepsin G (unknown origin) at 10 uM.
Data set [11] concerns the target T2, Trypsin (Homo sapiens). Nature of the data set: Inhibition of trypsin (unknown origin) at 1 uM relative to control. Format: protein assay.
For data set [12], the target named is Procathepsin L (Homo sapiens) (UniProt P07711). Put plainly: Inhibition of cathepsin L (unknown origin) at 10 uM relative to control.
The target in another data set is Caspase-6 (Homo sapiens) (UniProt P55212). Nature of the data set: Inhibition of caspase-6 (unknown origin) at 10 uM.
Chain of Caspase-6 (Homo sapiens) (P55212 24-179 limits assumed): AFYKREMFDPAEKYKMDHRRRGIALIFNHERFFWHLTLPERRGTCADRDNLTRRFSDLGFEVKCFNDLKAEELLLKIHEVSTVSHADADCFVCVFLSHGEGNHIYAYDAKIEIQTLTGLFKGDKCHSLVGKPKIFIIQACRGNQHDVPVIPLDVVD
Chain of Caspase-6 (Homo sapiens) (P55212 194-293 limits assumed): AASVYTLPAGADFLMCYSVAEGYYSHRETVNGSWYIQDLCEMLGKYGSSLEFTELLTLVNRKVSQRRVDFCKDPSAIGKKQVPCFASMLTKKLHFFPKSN

Chain of Tryptase beta-2 (Homo sapiens) (P20231 whole entry): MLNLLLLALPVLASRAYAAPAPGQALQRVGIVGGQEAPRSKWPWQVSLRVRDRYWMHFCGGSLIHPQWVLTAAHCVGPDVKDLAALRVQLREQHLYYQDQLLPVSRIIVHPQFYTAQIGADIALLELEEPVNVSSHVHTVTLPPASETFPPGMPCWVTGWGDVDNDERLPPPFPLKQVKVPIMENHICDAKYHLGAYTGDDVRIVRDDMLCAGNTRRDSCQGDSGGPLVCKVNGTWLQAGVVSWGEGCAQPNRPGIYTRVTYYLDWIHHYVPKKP
Chain of Procathepsin L (Homo sapiens) (P07711 114-333 limits assumed): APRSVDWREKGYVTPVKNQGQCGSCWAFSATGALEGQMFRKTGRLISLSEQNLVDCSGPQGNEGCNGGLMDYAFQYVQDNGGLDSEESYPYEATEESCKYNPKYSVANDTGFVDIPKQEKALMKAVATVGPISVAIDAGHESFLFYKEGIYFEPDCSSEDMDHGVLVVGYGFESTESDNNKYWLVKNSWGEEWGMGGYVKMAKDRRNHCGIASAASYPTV
Chain of Caspase-7 (Homo sapiens) (P55210 24-198 limits assumed): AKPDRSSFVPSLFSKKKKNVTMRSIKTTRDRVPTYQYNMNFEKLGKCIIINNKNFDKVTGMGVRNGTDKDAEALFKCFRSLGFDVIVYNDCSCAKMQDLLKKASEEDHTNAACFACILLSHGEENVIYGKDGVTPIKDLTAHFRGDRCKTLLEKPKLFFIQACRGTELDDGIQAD
Chain of Caspase-7 (Homo sapiens) (P55210 207-303 limits assumed): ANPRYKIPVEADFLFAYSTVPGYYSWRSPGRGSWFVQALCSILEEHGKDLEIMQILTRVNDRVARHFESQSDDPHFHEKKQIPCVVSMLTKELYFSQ
Chain of Kallikrein-1 (Homo sapiens) (P06870 25-262 limits assumed): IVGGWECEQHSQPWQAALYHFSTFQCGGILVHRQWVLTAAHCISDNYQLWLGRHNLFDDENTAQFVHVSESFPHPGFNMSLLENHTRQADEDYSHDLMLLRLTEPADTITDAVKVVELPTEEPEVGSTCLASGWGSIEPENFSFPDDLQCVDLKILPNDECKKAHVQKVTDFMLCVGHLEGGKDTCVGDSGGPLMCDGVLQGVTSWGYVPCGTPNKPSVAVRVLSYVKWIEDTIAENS
Chain of Cathepsin G (Homo sapiens) (P08311 whole entry): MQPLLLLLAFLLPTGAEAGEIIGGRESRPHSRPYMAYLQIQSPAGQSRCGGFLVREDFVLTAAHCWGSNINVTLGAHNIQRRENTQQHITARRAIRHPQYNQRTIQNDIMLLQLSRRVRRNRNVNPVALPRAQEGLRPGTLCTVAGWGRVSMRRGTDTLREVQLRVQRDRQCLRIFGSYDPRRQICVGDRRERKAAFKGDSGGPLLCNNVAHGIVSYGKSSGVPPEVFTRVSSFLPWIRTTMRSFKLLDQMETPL
Chain of Calpain1/2 (Homo sapiens) (P07384 whole entry, looked up): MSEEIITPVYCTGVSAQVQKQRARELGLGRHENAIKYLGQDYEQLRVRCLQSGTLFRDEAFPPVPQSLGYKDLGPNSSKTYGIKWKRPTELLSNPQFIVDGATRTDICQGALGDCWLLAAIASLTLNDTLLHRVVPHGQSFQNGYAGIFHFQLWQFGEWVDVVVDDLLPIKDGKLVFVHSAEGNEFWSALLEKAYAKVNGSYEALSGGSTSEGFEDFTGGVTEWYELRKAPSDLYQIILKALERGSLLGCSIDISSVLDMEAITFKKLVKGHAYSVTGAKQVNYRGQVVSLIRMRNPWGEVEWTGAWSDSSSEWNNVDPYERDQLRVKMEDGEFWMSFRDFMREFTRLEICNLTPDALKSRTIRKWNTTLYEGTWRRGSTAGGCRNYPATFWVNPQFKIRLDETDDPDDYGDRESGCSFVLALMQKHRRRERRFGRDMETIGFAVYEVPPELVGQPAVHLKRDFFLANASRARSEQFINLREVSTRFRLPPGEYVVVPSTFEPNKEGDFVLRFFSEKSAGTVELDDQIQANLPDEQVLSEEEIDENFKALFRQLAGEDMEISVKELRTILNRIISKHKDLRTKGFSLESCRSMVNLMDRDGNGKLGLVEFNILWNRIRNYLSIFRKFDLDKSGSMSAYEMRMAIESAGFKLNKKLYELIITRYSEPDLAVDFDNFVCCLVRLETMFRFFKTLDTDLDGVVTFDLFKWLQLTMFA
Chain of Calpain1/2 (Homo sapiens) (P17655 whole entry, looked up): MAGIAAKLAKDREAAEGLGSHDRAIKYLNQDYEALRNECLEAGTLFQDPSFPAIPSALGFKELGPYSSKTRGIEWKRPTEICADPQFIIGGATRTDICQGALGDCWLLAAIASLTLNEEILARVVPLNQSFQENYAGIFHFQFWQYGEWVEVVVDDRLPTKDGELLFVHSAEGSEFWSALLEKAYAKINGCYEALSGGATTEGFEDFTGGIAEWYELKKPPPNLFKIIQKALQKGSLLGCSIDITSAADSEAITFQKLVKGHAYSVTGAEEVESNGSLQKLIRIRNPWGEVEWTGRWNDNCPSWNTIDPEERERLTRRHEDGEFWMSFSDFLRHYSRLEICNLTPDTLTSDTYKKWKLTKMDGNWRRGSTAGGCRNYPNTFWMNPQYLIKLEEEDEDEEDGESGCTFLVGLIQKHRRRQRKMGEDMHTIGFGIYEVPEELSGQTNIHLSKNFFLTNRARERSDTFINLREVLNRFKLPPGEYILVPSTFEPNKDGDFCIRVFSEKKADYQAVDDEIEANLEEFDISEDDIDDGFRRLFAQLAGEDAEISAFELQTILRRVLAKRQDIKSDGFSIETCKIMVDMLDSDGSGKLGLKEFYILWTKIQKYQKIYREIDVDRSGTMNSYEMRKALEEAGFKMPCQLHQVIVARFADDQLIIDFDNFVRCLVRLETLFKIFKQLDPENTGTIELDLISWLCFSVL

The inhibition is the drop in the measured response relative to a control, in per cent. Take `CC(C)[C@H](NC(=O)c1ccc(Br)cc1)C(=O)N1CCC[C@H]1C(=O)N[C@@H](CCCNC(=N)N)C(=O)CF`: the result with OCI-Ly1 was Active. Moreover, the inhibition in data set [1] stood at 98.7%; in [4], 97.1%; in data set [5], 79%; against Trypsin (Homo sapiens) [6] it was 95.3%; in data set [7], 105%; in data set [9] it was 63.2%. For the same compound, the inhibition at Trypsin (Homo sapiens) [11] is 98%; in data set [12], 44.9%. Further, the t1/2 in data set [2] was 4.3 h. Moreover, the inhibition result (in [3]; on Caspase-7 (Homo sapiens); in data set [8]; in data set [10]; on Caspase-6 (Homo sapiens)) was “Active” in each case.
